Laboratory results taken from article PMC2586329 (Biochemistry, 2008).
Like-named read-outs stand apart in the source and are kept apart here.

Experiments:
ferrous EcDosH = details: cited from earlier work
full-length EcDos = details: pH 8; cited from earlier work
ferric EcDosH = ferric EcDosH (Escherichia coli, UniProt P76129)
EcDos = details: cited from earlier work
EcDosH = details: cited from earlier work

ferric EcDosH, sequence (P76129 1-139): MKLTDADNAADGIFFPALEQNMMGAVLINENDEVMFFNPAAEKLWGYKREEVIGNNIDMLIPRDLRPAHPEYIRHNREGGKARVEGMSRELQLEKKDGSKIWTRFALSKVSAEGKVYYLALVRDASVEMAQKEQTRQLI

SMILES	association rate constant (ferrous EcDosH; pH 7)	association rate constant (ferrous EcDosH; pH 8)	association rate constant (full-length EcDos)	effect on the heme at high hydrogen peroxide concentrations (ferric EcDosH)	affinity for binding (EcDos)	affinity for binding (EcDosH)
[C-]#[O+] [CO]	1100 M⁻¹ s⁻¹	7800 M⁻¹ s⁻¹	810 M⁻¹ s⁻¹	–	–	–
OO [H2O2, hydrogen peroxide]	–	–	–	oxidative degradation of the heme is observed	–	–
O=O [O2]	2600 M⁻¹ s⁻¹	31000 M⁻¹ s⁻¹	1900 M⁻¹ s⁻¹	–	–	–
[N-]=[N+]=[N-] [azide]	–	–	–	–	very low affinities	very low affinities
F [fluoride]	–	–	–	–	very low affinities	very low affinities
c1c[nH]cn1 [imidazole]	–	–	–	–	very low affinities	very low affinities
